From patent publication US20090215791A1, “NEW THERAPEUTIC USE OF 4-(2-FLUOROPHENYL)-6-METHYL-2-(1-PIPERAZINYL)THIENO[2,3-D]PYRIMIDINE” (Dynogen Pharmaceuticals, Inc., priority 2001, published 2009)

Experiments:
[1] = tested on: inflammatory pain (inflamed paw); experiment: Inflammatory pain, modified Randall Selitto method, paw pressure analgesiometer (Study 1); assay type: in vivo, rats; conditions: for Group mean (±sd) pain threshold (g) of inflamed paw at 1 hour pre-dose / Group mean (±sd) pain threshold (g) of inflamed paw at 2 hour pre-dose: baseline before dosing, 13 per group, groups later given MCI-225 30 mg/kg or indomethacin 1 mg/kg
Procedure: Three groups of rats received vehicle, indomethacin or MCI-225. There were 13 rats in each group. Inflammatory pain was induced following a modified Randall Selitto method and the pain threshold of the inflamed paw was measured using a paw pressure analgesiometer. The threshold for paw withdrawal was measured in grams at 1 and 3 hours post dose.

[2] = tested on: reflex depressor response to colorectal distension; experiment: Reflex depressor response to colorectal distension in anesthetised rats (Study 2); assay type: in vivo, male Sprague-Dawley rats; conditions: for Fall in arterial blood pressure (mean absolute decrease in mean arterial pressure, SEM in brackets) evoked by balloon distension: after MCI-225 3 mg/kg i.v.
Procedure: In Study 2, using intact animals, the ability of a drug to inhibit the reflex depressor response to colorectal distension can be assessed. In this model, an inhibition of the reflex indicates modulation of visceral nociceptive neurotransmission and, therefore, the use of the drug in functional bowel disease (e.g IBS); see Kozlowski et al, 2000, Gut 46, 474-480. Allodynia and visceral pain are important components of functional bowel disease.
Experiments were performed on male Sprague-Dawley rats (250-300 g). Anesthesia was induced with isoflurane (2.5% in oxygen) and maintained with alpha chlorolose (80 mg/kg i.v.). The left carotid artery was cannulated for the measurement of blood pressure and heart rate and the left jugular vein cannulated for drug administration. A tracheal cannula was implanted for artificial respiration if required. A 10 mm long latex balloon was inserted intrarectally so that the tip of the balloon was 20 mm from the anal verge (Kozlowski et al, supra). The balloon was connected via a double lumen cannula to a pressure transducer and also to a saline-filled syringe for inflation/deflation of the balloon. Throughout the experiment, body temperature was kept constant at 36-38 C using a homeothermic blanket.
Once stable baseline parameters were obtained (approximately after 20 minutes), the balloon was rapidly inflated with increasing volumes of saline (0.5-2.5 ml) for 30 seconds at 5 minute intervals, and the resultant change in blood pressure recorded. Three distinct response curves were constructed, with a 10 minute stabilisation period between each curve. In one group of animals, 10 minutes prior to the commencement of the final distension response curve, a single bolus of MCI-225 (3 mg/kg) was administered intravenously; in a second group of animals, a single bolus dose of vehicle was administered. The effect of MCI-225 and vehicle was determined by analysing the changes in colorectal distension that evoked depressor response.

Row | Structure (SMILES) | Group mean (±sd) pain threshold (g) of inflamed paw at 1 hour pre-dose ([1]; rats) | Group mean (±sd) pain threshold (g) of inflamed paw at 2 hour pre-dose ([1]; rats) | Fall in arterial blood pressure (mean absolute decrease in mean arterial pressure, SEM in brackets) evoked by balloon distension ([2]; 0.5 ml balloon volume, n=6, before drug 2.7 (1.9)) | Fall in arterial blood pressure (mean absolute decrease in mean arterial pressure, SEM in brackets) evoked by balloon distension ([2]; 1.0 ml balloon volume, n=6, before drug 12.4 (5.9)) | Fall in arterial blood pressure (mean absolute decrease in mean arterial pressure, SEM in brackets) evoked by balloon distension ([2]; 1.5 ml balloon volume, n=6, before drug 24.0 (8.9)) | Fall in arterial blood pressure (mean absolute decrease in mean arterial pressure, SEM in brackets) evoked by balloon distension ([2]; 2.0 ml balloon volume, n=6, before drug 36.3 (4.8), p<0.01 paired t test) | Fall in arterial blood pressure (mean absolute decrease in mean arterial pressure, SEM in brackets) evoked by balloon distension ([2]; 2.5 ml balloon volume, n=5, before drug 43.4 (6.0), p<0.05 paired t test) | Effect on distension-induced falls in blood pressure (in words) ([2]; MCI-225 3 mg/kg i.v., significant at 2.0 and 2.5 ml balloon volumes) | Group mean changes (±sd) in pain threshold (g) from pre-dose reading at 1 hour post-dose ([1]; 1 hour post-dose, MCI-225 30 mg/kg (oral), indomethacin 1 mg/kg, rats, * p<0.05, ** p<0.01 vs vehicle, monohydrate hydrochloride) | Group mean changes (±sd) in pain threshold (g) from pre-dose reading at 3 hour post-dose ([1]; 3 hour post-dose, MCI-225 30 mg/kg (oral), indomethacin 1 mg/kg, rats, * p<0.05, ** p<0.01 vs vehicle, monohydrate hydrochloride) | Analgesic activity in in vivo model of inflammatory pain (in words) ([1]; MCI-225 oral dose of 30 mg/kg versus indomethacin 1 mg/kg)
1 | COc1ccc2c(c1)c(CC(=O)O)c(C)n2C(=O)c1ccc(Cl)cc1 [Indomethacin, indomethacin, reference compound] | 166.2 ± 68.32 g | 144.2 ± 41.32 g | – | – | – | – | – | – | – | – | –
2 | Cc1cc2c(-c3ccccc3F)nc(N3CCNCC3)nc2s1.Cl.O [MCI-225, 4-(2-Fluorophenyl)-6-methyl-2-(1-piperazinyl)thieno[2,3-D]pyrimidine monohydrate hydrochloride] | 147.7 ± 65.91 g | 138.5 ± 34.72 g | 2.2 (1.65) mmHg | 6.3 (2.6) mmHg | 10.6 (3.9) mmHg | 15.3 (5.4) mmHg | 24.6 (7.3) mmHg | inhibited the distension-induced falls in blood pressure | 32.3 g | 66.9 g | comparable to that of indomethacin
